Results on two compounds are retold here after US10653693B2, “PRMT5 inhibitors and uses thereof” (Epizyme, Inc., priority 2014, dated 2020).

For one series, the system named is Z138 cells. Nature of the series: Western analysis (sDMA, cleaved Caspase-3, cleaved PARP). It is filed as cell-based, Human. The following applies: 1 μM, 1-5 days. The procedure: Z138 cells were seeded at approximately […] in IMDM+10% horse serum media. Cells were treated with 1 μM of compound for 1, 2, 3, 4, or 5 days. Cell pellets were collected by centrifuging at 500×g for 5 minutes, washing once with PBS, and freezing at −80° C. until ready to be processed.
Protein lysates were prepared by adding RIPA buffer (Sigma R0278) containing protease inhibitor (about 5× the volume of the cell pellet, or roughly 250 μL) to each cell pellet and pipetting to resuspend. Samples were sonicated with 10×1 second pulses then centrifuged at maximum speed (13,300 RPM) for 6 minutes. Supernatant (200 μL) was transferred to a fresh Eppendorf tube, and pellets were discarded. Protein concentration was determined using a Pierce BCA Protein Assay kit.
Protein gel samples were prepared by combining 20 μg of lysate with appropriate volumes of Life Technologies NuPage Sample Reducing Agent, LDS Sample Buffer, and RIPA buffer. Gel samples were heated for 5-10 minutes at 100° C. in a heat block. A 15-well Invitrogen 4-12% Bis-Tris NuPAGE-SDS gel was loaded with a volume of 19 μL per well, and run in MES SDS buffer at 150V for about 1 hour or until maximal separation of bands was achieved.
Gels were transferred onto nitrocellulose membranes using an Invitrogen iBlot system. […]

The next series deals with Z-138. Nature of the series: Long-term proliferation (LTP) assay. It is filed as cell-based. The following applies: Homo sapiens. The procedure: FIG. 4 illustrates a representative sample of a long-term proliferation assay performed in the mantle cell lymphoma cell line Z-138. Assays were performed in technical triplicates, reading cell viability over 14 days. Growth curves (top panel) were calculated in Excel. IC50 (bottom panel) and IC90 (not shown) values were calculated in GraphPad Prism using a non-linear regression analysis, fixing the top and bottom of the curves to 100 and 0%, respectively. The IC50 values in the Table are indicated in microM. [table]

For series [1], the system named is cellular methylation (symmetric di-methyl arginine) in Z-138 cells. Nature of the series: In Cell Western (ICW) methylation assay, SYM11 antibody. The class given is cell-based. The following applies: Homo sapiens, 96 h, 4 days of treatment, n=1. The procedure:
Percent inhibition was determined and IC50 curves were generated using triplicate wells per concentration of compound. IC50 values were calculated using GraphPad Prism using a 4-parametric fit of the normalized dose response curves with the top fixed to 100%. Z-138 suspension cells were purchased from ATCC (American Type Culture Collection, Manassas, Va.). RPMI/Glutamax medium, penicillin-streptomycin, heat inactivated fetal bovine serum, and D-PBS were purchased from Life Technologies, Grand Island, N.Y., USA. Odyssey blocking buffer, 800CW goat anti-rabbit IgG (H+L) antibody, and Licor Odyssey infrared scanner were purchased from Licor Biosciences, Lincoln, Nebr., USA. Symmetric di-methyl arginine antibody was purchased from EMD Millipore, Billerica, Mass., USA. 16% Paraformaldehyde was purchased from Electron Microscopy Sciences, Hatfield, Pa., USA. Z-138 suspension cells were maintained in growth medium (RPMI 1640 supplemented with 10% v/v heat inactivated fetal bovine serum and 100 units/mL penicillin-streptomycin) and cultured at 37° C. under 5% CO2. […] The average of the ratio values for each control type was calculated and used to determine the percent inhibition for each test well in the plate. […] Percent inhibition was determined and IC50 curves were generated using triplicate wells per concentration of compound. […]

Series [2] in a line: Body weight loss in Z-138 xenograft study. The class given is in vivo. The following applies: 21 days. The procedure:
(§1) Data presented in this example were determined after analysis of 21 day samples of mantle cell lymphoma tumors. Cmin PK samples were taken prior to the last dose on day 21. Tumors were excised, weighed and processed for methyl mark. Methyl mark reduction was measured in tumor samples and is shown as percent of vehicle control (POC). Both SYM11 and sDMA Elisa were used to measure methyl mark and the data shown is averaged from 10 animals. Tumor growth inhibition was determined using tumor volume reduction at day 21 expressed as a percent of POC. In vivo inhibition curves were also generated and IC50 values determined. Plasma levels from each group are averaged from 5 animals. […] The average body weight loss (BWL) in all groups was <6%. All doses tested show >50% TGI. […] The average BWL in all groups was <4%. The average BWL in all groups was <8%, except in the 100 mg/kg does group were 4 animals exceeded BWL of 15%.

Series [3] is described as follows: Body weight loss in Maver-1 xenograft study. The class given is in vivo. The following applies: 21 days. The procedure:
as §1

Where two headings read alike, the source gives them in different places. Where only a bound is given, the exact number is not on record here.

Take `O=C(NC[C@H](O)CN1CCc2ccccc2C1)c1ccnc(NC2CCC2)c1` [Formula C]: in the series on Z138 cells, the “cell death pathways (cleaved Caspase-3 and cleaved PARP) by Western” value is listed as “induction of cell death pathways”; the “inhibition of PRMT5 (sDMA, symmetric dimethylarginine) by Western” value is “time-dependent inhibition”.

`CC(=O)N1CCC(Nc2cc(C(=O)NC[C@H](O)CN3CCc4ccccc4C3)ccn2)CC1` [Formula B]: the 50% inhibitory concentration (IC50) (commonly the concentration needed to halve the response being measured) with Z-138 (264 h, 11-day treatment, N = 1, read-out: Formula B LTP IC50) amounted to 3 nM; in the series with Z-138 (Table 3, read-out: LTP IC50), 2 nM; in series [1] it was 0.64 nM. Also, the 90% effect concentration (IC90) – broadly, the concentration needed for an effect of 90% – in the series on Z-138 (264 h, 11-day treatment, N = 1, read-out: Formula B LTP IC90) worked out at 20 nM. In addition, the “average body weight loss (BWL) in all groups” value in series [2] was less than 6%; in series [3], less than 4%.
